Reference: patent US11339130B1 (Blade Therapeutics, Inc., priority 2016, dated 2022)
Read-outs that look alike come from different tables or passages of the source.

Assays:
[1] = target: T1, Human Calpain 9/NS1 (Homo sapiens, UniProt O14815); assay: Calpain inhibition continuous fluorescence (FRET) assay, Human Calpain 9/NS1; format: biochemical; conditions: read-out: Human Calpain 9/NS1 IC50
T1 sequence (O14815 1-690): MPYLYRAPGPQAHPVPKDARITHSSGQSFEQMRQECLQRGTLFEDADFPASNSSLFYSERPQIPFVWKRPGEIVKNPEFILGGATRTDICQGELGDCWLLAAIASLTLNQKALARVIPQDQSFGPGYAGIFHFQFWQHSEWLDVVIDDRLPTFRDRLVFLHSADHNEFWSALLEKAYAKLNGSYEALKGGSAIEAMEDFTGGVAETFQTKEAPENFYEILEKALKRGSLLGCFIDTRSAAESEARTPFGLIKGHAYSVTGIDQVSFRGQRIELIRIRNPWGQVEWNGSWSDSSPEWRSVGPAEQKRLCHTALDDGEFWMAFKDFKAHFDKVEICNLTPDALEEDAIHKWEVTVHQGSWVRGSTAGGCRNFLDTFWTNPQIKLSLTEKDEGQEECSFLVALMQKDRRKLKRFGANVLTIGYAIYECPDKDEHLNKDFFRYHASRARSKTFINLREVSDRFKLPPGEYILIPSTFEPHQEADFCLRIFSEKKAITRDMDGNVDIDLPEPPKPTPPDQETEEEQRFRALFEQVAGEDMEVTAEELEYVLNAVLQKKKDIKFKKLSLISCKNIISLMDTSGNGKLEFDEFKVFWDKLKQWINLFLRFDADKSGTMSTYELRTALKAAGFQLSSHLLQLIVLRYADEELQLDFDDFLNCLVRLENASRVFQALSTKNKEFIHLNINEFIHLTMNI
T1 sequence (P04632 1-268 partner): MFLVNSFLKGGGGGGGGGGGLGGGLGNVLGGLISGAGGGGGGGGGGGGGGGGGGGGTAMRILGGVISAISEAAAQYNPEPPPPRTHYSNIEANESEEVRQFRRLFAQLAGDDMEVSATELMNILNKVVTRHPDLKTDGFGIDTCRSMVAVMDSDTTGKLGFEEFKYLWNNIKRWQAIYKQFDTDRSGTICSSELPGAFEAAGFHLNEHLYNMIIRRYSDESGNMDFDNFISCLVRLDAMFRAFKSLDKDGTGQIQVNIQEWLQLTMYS
Summary of the method: (§1)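 Inhibitors were preincubated with calpain in 50 mM Tris pH 7.5, 100 mM NaCl, 1 mM DTT at 25C. Reactions were started with 5-FAM/QXL 520 FRET peptide substrate plus CaCl2 and read at 490/520 nm for 10 min. IC50s came from 4-parameter fits of slope rates (1-5 min).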

[2] = target: T2, Human Calpain 1/NS1 (Homo sapiens, UniProt P07384); assay: Calpain inhibition continuous fluorescence (FRET) assay, Human Calpain 1/NS1; format: biochemical; conditions: read-out: Human Calpain 1/NS1 IC50
T2 sequence (P07384 1-714): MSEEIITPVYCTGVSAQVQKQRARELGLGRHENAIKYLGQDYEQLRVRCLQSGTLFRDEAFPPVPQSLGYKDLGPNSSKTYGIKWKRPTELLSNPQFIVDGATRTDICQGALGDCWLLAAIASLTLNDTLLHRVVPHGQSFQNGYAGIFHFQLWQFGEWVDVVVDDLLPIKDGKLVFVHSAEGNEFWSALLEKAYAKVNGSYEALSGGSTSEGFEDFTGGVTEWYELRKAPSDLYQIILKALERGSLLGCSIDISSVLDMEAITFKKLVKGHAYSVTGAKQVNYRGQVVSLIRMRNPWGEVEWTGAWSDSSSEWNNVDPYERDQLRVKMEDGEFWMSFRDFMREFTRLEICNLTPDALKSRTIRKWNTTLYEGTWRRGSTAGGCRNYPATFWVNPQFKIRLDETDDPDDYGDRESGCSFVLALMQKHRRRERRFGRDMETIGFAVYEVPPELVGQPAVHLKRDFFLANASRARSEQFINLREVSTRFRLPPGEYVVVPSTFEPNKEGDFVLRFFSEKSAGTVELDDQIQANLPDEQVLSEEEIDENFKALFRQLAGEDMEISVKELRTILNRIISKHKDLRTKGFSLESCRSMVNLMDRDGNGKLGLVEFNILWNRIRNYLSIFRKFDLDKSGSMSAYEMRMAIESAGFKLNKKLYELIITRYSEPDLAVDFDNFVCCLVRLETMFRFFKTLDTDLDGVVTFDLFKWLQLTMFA
T2 sequence (P04632 1-268 partner): T1 sequence (P04632 1-268 partner)
Summary of the method: as §1

[3] = target: T3, Human Calpain 2/NS1 (Homo sapiens, UniProt P17655); assay: Calpain inhibition continuous fluorescence (FRET) assay, Human Calpain 2/NS1; format: biochemical; conditions: read-out: Human Calpain 2/NS1 IC50
T3 sequence (P17655 1-700): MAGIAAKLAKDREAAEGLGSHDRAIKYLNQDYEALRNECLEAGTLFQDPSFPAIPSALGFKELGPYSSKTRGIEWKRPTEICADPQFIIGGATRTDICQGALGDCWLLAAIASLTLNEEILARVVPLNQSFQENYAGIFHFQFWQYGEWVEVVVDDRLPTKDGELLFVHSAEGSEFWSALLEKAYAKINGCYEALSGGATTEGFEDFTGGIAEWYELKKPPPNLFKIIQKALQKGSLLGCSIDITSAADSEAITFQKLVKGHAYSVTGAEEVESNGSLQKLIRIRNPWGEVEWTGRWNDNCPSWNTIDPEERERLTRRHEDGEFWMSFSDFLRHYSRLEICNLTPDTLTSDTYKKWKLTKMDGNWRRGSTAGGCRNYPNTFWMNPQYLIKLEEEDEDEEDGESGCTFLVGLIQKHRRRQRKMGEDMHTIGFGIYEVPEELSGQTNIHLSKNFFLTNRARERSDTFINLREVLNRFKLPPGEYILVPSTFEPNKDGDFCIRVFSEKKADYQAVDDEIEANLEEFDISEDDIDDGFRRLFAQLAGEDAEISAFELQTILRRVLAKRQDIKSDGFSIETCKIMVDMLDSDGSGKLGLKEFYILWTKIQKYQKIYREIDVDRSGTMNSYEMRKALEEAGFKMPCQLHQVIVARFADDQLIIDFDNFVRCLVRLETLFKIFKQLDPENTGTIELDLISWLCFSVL
T3 sequence (P04632 1-268 partner): T1 sequence (P04632 1-268 partner)
Summary of the method: as §1

[4] = system: Calpain activity in SH-SY5Y cells; assay: SH-SY5Y + AMC fluorescence assay (Suc-LLVY-AMC substrate); format: cell-based
[5] = Column E, read-out: SH-SY5Y + AMC IC50

IC50 ([1]; Column C)	IC50 ([2]; Column A)	IC50 ([3]; Column B)	IC50 [4, 5]	IC50 [1]	IC50 [2]	IC50 [3]	IC50 ([4]; read-out: SH-SY5Y + AMC IC50)	Compound	IC50 ([4]; read-out: SH-SY5Y + AMC IC50, Column E)
< 3 µM	< 3 µM	< 3 µM	> 25 µM					O=C[C@H](Cc1ccccc1)NC(=O)c1scnc1-c1ccccc1 [Compound 6, (S)—N-(1-oxo-3-phenylpropan-2-yl)-4-phenylthiazole-5-carboxamide]	
< 3 µM	< 3 µM	< 3 µM	10 to 25 µM					O=C[C@H](Cc1ccccc1)NC(=O)c1csnc1-c1ccccc1 [Compound 9, (S)—N-(1-oxo-3-phenylpropan-2-yl)-3-phenylisothiazole-4-carboxamide]	
< 3 µM	< 3 µM	< 3 µM	10 to 25 µM					Cc1nc(-c2ccccc2)c(C(=O)N[C@@H](Cc2ccccc2)C(=O)C(N)=O)s1 [Compound 25, (S)—N-(4-amino-3,4-dioxo-1-phenylbutan-2-yl)-2-methyl-4-phenylthiazole-5-carboxamide]	
< 3 µM	< 3 µM	< 3 µM	< 10 µM					Cc1cc(C(=O)N[C@@H](Cc2ccccc2)C(=O)C(N)=O)n(-c2cccc(C(F)(F)F)n2)n1 [Compound 59]	
< 3 µM	< 3 µM	< 3 µM	> 25 µM					Cn1cc(C(=O)N[C@@H](Cc2ccccc2)C(=O)C(N)=O)c(-c2cccc(OC(F)(F)F)c2)n1 [Compound 184, (S)—N-(4-amino-3,4-dioxo-1-phenylbutan-2-yl)-1-methyl-3-(3-(trifluoromethoxy)phenyl)-1H-pyrazole-4-carboxamide]	
> 10 µM	< 3 µM	< 3 µM	> 25 µM					Cc1cc(C(=O)N[C@@H](Cc2ccccc2)C(=O)C(=O)NC2CC2)n(-c2nc(-c3ccccc3)cs2)n1 [Compound 203, (S)—N-(4-(cyclopropylamino)-3,4-dioxo-1-phenylbutan-2-yl)-3-methyl-1-(4-phenylthiazol-2-yl)-1H-pyrazole-5-carboxamide]	
< 3 µM	< 3 µM	< 3 µM	> 25 µM					Cc1cc(C(=O)N[C@@H](Cc2ccccc2)C(=O)C(N)=O)n(-c2cccc(-c3ccccc3F)c2)n1 [Compound 214, (S)—N-(4-amino-3,4-dioxo-1-phenylbutan-2-yl)-1-(2′-fluoro-[1,1′-biphenyl]-3-yl)-3-methyl-1H-pyrazole-5-carboxamide]	
< 3 µM	< 3 µM	< 3 µM	> 25 µM					NC(=O)C(=O)[C@H](Cc1ccccc1)NC(=O)c1cc(Cl)sc1-c1ccccc1 [Compound 271, (S)—N-(4-amino-3,4-dioxo-1-phenylbutan-2-yl)-5-chloro-2-phenylthiophene-3-carboxamide]	
< 3 µM	< 3 µM	< 3 µM	10 to 25 µM					NC(=O)C(=O)[C@H](Cc1ccccc1)NC(=O)c1cc(Cl)nn1-c1ccccc1 [Compound 281, (S)—N-(4-amino-3,4-dioxo-1-phenylbutan-2-yl)-3-chloro-1-phenyl-1H-pyrazole-5-carboxamide]	
< 3 µM	< 3 µM	< 3 µM	> 25 µM					C[C@@H]1C[C@@H](C(=O)NC(Cc2ccccc2)C(=O)C(N)=O)N(c2ccccc2)C1 (stereo partly drawn) [Compound 292, (2S,4R)—N-(4-amino-3,4-dioxo-1-phenylbutan-2-yl)-4-methyl-1-phenylpyrrolidine-2-carboxamide]	
				< 3 µM	< 3 µM	< 3 µM	< 10 µM	NC(=O)C(=O)[C@H](Cc1ccccc1)NC(=O)c1cc(C(F)(F)F)nn1-c1ccccc1 [Compound 305, (S)—N-(4-amino-3,4-dioxo-1-phenylbutan-2-yl)-1-phenyl-3-(trifluoromethyl)-1H-pyrazole-5-carboxamide]	
				3 to 10 µM	3 to 10 µM	3 to 10 µM	< 10 µM	NC(=O)C(=O)[C@H](Cc1ccccc1)NC(=O)c1cc(C2CC2)nn1-c1ccccc1 [Compound 306, (S)—N-(4-amino-3,4-dioxo-1-phenylbutan-2-yl)-3-cyclopropyl-1-phenyl-1H-pyrazole-5-carboxamide]	
				< 3 µM	< 3 µM	< 3 µM	> 25 µM	NC(=O)C(=O)[C@H](Cc1ccccc1)NC(=O)[C@@H]1CCCN1c1ccccc1 [Compound 308, (S)—N—((S)-4-amino-3,4-dioxo-1-phenylbutan-2-yl)-1-phenylpyrrolidine-2-carboxamide]	
< 3 µM	< 3 µM	< 3 µM						Cc1cc(C(=O)NC(Cc2ccccc2)C(=O)C(=O)NC2CC2)n(-c2ccncc2)n1 (centres unmarked) [compound 210]	
< 3 µM	< 3 µM	< 3 µM						(S)—N-(4-amino-1-(3,5-dimethylphenyl)-3,4-dioxobutan-2-yl)-3-methyl-5-phenylisoxazole-4-carboxamide [Compound 98]	
				3 to 10 µM	< 3 µM	< 3 µM		(S)—N-(4-amino-3,4-dioxo-1-phenylbutan-2-yl)-1-(tert-butyl)-3-methyl-1H-pyrazole-5-carboxamide [Compound 310]	
				3 to 10 µM	< 3 µM	< 3 µM		(S)—N-(4-amino-3,4-dioxo-1-phenylbutan-2-yl)-4-chloro-1-ethyl-3-methyl-1H-pyrazole-5-carboxamide [Compound 312]	
				< 3 µM	< 3 µM	< 3 µM		N-(4-amino-3,4-dioxo-1-phenylbutan-2-yl)-3-(isoquinolin-3-yl)-1-methyl-1H-pyrazole-4-carboxamide [Compound 629]	

Compound	IC50 ([1]; Column C)	IC50 ([2]; Column A)	IC50 ([3]; Column B)	IC50 [4, 5]	IC50 [1]	IC50 [2]	IC50 [3]	IC50 ([4]; read-out: SH-SY5Y + AMC IC50)	IC50 ([4]; read-out: SH-SY5Y + AMC IC50, Column E)
COC(=O)NCc1cccc(-n2nc(C)cc2C(=O)N[C@@H](Cc2ccccc2)C(=O)C(N)=O)c1 [Compound 140, Methyl (S)-(3-(5-((4-amino-3,4-dioxo-1-phenylbutan-2-yl)carbamoyl)-3-methyl-1H-pyrazol-1-yl)benzyl)carbamate]	< 3 µM	< 3 µM	< 3 µM						10 to 25 µM
